Experiments:
[1] = molecular target: T1, ALK (Homo sapiens, UniProt Q9UM73); assay: Kinome screen, ALK; assay type: binding; conditions: screened at 1 μM
T1 construct: made in house; host or cells: T7 phage in E. coli (BL21-derived) or HEK-293
Description: (§1) Kinase-tagged T7 phage strains were grown in parallel in 24-well blocks in an E. coli host derived from the BL21 strain. E. coli were grown to log-phase and infected with T7 phage from a frozen stock (multiplicity of infection=0.4) and incubated with shaking at 32° C. until lysis (90-150 minutes). The lysates were centrifuged (6,000×g) and filtered (0.2 μm) to remove cell debris. The remaining kinases were produced in HEK-293 cells and subsequently tagged with DNA for qPCR detection.
(§2) Streptavidin-coated magnetic beads were treated with biotinylated small molecule ligands for 30 minutes at room temperature to generate affinity resins for kinase assays. The liganded beads were blocked with excess biotin and washed with blocking buffer (SeaBlock (Pierce), 1% BSA, 0.05% Tween 20, 1 mM DTT) to remove unbound ligand and to reduce non-specific phage binding. […] Test compounds were prepared as 40× stocks in 100% DMSO and directly diluted into the assay. All reactions were performed in polypropylene 384-well plates in a final volume of 0.04 ml. […] The beads were then re-suspended in elution buffer (1×PBS, 0.05% Tween 20, 0.5 μM non-biotinylated affinity ligand) and incubated at room temperature with shaking for 30 minutes. The kinase concentration in the eluates was measured by qPCR.

[2] = molecular target: T2, AURKA (Homo sapiens, UniProt O14965); assay: Kinome screen, AURKA; assay type: binding; conditions: screened at 1 μM
T2 construct: made in house; host or cells: T7 phage in E. coli (BL21-derived) or HEK-293
T2 sequence (O14965 whole entry): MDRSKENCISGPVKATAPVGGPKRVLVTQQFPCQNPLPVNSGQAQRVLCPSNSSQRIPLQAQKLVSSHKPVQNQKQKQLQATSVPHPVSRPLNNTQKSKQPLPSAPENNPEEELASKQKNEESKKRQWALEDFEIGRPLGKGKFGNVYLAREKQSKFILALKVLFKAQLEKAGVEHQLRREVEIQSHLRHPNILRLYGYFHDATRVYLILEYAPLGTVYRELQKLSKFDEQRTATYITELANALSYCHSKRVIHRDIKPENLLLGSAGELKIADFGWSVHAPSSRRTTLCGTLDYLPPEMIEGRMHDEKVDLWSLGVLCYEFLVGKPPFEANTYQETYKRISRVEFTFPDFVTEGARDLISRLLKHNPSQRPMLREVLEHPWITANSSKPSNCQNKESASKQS
Description: as §1, §2

[3] = molecular target: T3, CDK2 (Homo sapiens, UniProt P24941); assay: Kinome screen, CDK2; assay type: binding; conditions: screened at 1 μM
T3 construct: made in house; host or cells: T7 phage in E. coli (BL21-derived) or HEK-293
Description: as §1, §2

[4] = molecular target: T4, CDK7 (Homo sapiens, UniProt P50613); assay: Kinome screen, CDK7; assay type: binding; conditions: screened at 1 μM
T4 construct: made in house; host or cells: T7 phage in E. coli (BL21-derived) or HEK-293
T4 sequence (P50613 whole entry): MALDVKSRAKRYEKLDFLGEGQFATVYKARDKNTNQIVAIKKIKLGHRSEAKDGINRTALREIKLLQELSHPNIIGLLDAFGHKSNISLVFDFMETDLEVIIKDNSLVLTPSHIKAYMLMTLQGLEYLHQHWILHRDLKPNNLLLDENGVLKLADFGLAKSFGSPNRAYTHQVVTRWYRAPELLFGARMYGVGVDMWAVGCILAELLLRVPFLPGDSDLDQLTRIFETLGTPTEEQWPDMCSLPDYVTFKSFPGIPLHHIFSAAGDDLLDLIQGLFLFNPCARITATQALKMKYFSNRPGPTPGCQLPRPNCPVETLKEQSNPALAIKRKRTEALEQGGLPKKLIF
Description: as §1, §2

[5] = molecular target: T5, CDK9 (Homo sapiens, UniProt P50750); assay: Kinome screen, CDK9; assay type: binding; conditions: screened at 1 μM
T5 construct: made in house; host or cells: T7 phage in E. coli (BL21-derived) or HEK-293
T5 sequence (P50750 whole entry): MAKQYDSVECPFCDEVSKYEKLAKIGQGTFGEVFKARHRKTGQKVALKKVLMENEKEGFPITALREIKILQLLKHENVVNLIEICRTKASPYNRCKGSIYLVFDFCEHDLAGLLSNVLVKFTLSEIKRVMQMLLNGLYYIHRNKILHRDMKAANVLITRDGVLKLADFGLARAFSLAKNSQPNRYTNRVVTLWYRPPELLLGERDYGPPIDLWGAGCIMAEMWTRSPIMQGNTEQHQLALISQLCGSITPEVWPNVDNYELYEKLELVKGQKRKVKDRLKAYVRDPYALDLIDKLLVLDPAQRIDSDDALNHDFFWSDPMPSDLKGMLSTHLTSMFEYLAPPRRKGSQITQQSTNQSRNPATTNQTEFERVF
Description: as §1, §2

[6] = molecular target: T6, CSF1R (Homo sapiens, UniProt P07333); assay: Kinome screen, CSF1R; assay type: binding; conditions: screened at 1 μM
T6 construct: made in house; host or cells: T7 phage in E. coli (BL21-derived) or HEK-293
Description: as §1, §2

[7] = molecular target: T7, EPHB6 (Homo sapiens, UniProt O15197); assay: Kinome screen, EPHB6; assay type: binding; conditions: screened at 1 μM
T7 construct: made in house; host or cells: T7 phage in E. coli (BL21-derived) or HEK-293
T7 sequence (O15197 32-1021): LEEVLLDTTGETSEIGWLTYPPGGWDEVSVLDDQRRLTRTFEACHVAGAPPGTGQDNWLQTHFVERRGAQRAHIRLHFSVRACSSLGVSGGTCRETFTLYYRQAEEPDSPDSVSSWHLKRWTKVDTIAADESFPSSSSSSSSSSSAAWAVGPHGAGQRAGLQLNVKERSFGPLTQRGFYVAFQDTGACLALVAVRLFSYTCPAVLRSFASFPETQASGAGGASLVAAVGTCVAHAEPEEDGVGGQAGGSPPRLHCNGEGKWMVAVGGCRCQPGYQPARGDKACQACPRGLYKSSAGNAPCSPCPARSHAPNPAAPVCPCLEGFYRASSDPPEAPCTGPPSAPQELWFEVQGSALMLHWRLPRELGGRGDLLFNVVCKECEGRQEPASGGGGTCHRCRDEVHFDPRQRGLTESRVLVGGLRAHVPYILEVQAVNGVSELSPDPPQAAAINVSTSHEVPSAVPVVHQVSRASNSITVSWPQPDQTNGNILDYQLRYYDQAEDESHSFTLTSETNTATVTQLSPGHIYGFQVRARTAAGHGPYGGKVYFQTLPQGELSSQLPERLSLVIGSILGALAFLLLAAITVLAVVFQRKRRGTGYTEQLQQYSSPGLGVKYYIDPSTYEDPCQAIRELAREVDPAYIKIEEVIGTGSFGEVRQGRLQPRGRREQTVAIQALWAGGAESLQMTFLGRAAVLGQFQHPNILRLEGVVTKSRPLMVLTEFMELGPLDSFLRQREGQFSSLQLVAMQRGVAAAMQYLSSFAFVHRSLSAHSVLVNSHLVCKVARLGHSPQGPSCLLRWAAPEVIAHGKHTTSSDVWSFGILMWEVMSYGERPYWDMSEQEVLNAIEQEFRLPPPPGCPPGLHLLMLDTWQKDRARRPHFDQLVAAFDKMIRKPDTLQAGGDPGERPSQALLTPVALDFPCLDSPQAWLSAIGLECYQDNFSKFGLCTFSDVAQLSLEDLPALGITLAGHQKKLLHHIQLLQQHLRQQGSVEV
Description: as §1, §2

[8] = molecular target: T8, GSK3B (Homo sapiens, UniProt P49841); assay: Kinome screen, GSK3B; assay type: binding; conditions: screened at 1 μM
T8 construct: made in house; host or cells: T7 phage in E. coli (BL21-derived) or HEK-293
Description: as §1, §2

[9] = molecular target: T9, KIT (Homo sapiens, UniProt P10721); assay: Kinome screen, KIT; assay type: binding; conditions: screened at 1 μM
T9 construct: made in house; host or cells: T7 phage in E. coli (BL21-derived) or HEK-293
Description: as §1, §2

[10] = molecular target: T10, PAK4 (Homo sapiens, UniProt O96013); assay: Kinome screen, PAK4; assay type: binding; conditions: screened at 1 μM
T10 construct: made in house; host or cells: T7 phage in E. coli (BL21-derived) or HEK-293
Description: as §1, §2

[11] = molecular target: T11, PKAC-ALPHA (Homo sapiens, UniProt P17612); assay: Kinome screen, PKAC-ALPHA; assay type: binding; conditions: screened at 1 μM
T11 construct: made in house; host or cells: T7 phage in E. coli (BL21-derived) or HEK-293
Description: as §1, §2

[12] = molecular target: T12, PLK4 (Homo sapiens, UniProt O00444); assay: Kinome screen, PLK4; assay type: binding; conditions: screened at 1 μM
T12 construct: made in house; host or cells: T7 phage in E. coli (BL21-derived) or HEK-293
Description: as §1, §2

[13] = molecular target: T13, SLK (Homo sapiens, UniProt Q9H2G2); assay: Kinome screen, SLK; assay type: binding; conditions: screened at 1 μM
T13 construct: made in house; host or cells: T7 phage in E. coli (BL21-derived) or HEK-293
T13 sequence (Q9H2G2 whole entry): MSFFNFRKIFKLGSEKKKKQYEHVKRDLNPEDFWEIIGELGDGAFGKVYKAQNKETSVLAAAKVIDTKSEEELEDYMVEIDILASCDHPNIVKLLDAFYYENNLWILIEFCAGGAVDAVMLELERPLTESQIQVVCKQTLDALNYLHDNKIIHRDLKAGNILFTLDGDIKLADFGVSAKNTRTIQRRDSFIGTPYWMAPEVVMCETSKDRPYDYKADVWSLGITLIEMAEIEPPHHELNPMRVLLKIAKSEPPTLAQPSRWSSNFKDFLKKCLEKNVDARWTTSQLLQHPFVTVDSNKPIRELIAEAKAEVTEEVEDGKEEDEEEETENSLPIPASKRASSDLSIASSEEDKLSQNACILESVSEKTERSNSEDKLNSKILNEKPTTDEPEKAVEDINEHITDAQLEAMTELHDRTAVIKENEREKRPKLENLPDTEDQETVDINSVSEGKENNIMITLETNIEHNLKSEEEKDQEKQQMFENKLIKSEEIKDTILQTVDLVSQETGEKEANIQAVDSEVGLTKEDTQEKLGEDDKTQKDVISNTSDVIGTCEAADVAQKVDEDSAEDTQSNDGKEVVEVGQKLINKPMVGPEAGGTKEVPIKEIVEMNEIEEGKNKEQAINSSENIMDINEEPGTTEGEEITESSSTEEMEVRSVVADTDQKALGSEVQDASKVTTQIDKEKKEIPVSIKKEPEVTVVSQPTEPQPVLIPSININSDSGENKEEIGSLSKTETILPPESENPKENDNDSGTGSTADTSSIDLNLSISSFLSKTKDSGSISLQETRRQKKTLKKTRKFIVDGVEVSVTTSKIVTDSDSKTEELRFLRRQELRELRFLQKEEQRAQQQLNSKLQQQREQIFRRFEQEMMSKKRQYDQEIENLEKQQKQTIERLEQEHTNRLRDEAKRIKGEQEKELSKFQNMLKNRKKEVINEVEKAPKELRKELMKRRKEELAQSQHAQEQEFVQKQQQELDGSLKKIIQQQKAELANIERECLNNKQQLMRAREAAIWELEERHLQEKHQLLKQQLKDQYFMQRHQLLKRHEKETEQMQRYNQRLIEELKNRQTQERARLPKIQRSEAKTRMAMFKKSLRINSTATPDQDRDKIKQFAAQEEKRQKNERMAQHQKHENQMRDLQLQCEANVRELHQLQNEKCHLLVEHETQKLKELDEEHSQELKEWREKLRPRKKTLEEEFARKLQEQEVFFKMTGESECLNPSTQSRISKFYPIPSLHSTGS
Description: as §1, §2

[14] = molecular target: T14, SRC (Homo sapiens, UniProt P12931); assay: Kinome screen, SRC; assay type: binding; conditions: screened at 1 μM
T14 construct: made in house; host or cells: T7 phage in E. coli (BL21-derived) or HEK-293
Description: as §1, §2

[15] = molecular target: T15, SYK (Homo sapiens, UniProt P43405); assay: Kinome screen, SYK; assay type: binding; conditions: screened at 1 μM
T15 construct: made in house; host or cells: T7 phage in E. coli (BL21-derived) or HEK-293
Description: as §1, §2

[16] = molecular target: T16, VEGFR2 (Homo sapiens, UniProt P35968); assay: Kinome screen, VEGFR2; assay type: binding; conditions: screened at 1 μM
T16 construct: made in house; host or cells: T7 phage in E. coli (BL21-derived) or HEK-293
T16 sequence (P35968 20-1356): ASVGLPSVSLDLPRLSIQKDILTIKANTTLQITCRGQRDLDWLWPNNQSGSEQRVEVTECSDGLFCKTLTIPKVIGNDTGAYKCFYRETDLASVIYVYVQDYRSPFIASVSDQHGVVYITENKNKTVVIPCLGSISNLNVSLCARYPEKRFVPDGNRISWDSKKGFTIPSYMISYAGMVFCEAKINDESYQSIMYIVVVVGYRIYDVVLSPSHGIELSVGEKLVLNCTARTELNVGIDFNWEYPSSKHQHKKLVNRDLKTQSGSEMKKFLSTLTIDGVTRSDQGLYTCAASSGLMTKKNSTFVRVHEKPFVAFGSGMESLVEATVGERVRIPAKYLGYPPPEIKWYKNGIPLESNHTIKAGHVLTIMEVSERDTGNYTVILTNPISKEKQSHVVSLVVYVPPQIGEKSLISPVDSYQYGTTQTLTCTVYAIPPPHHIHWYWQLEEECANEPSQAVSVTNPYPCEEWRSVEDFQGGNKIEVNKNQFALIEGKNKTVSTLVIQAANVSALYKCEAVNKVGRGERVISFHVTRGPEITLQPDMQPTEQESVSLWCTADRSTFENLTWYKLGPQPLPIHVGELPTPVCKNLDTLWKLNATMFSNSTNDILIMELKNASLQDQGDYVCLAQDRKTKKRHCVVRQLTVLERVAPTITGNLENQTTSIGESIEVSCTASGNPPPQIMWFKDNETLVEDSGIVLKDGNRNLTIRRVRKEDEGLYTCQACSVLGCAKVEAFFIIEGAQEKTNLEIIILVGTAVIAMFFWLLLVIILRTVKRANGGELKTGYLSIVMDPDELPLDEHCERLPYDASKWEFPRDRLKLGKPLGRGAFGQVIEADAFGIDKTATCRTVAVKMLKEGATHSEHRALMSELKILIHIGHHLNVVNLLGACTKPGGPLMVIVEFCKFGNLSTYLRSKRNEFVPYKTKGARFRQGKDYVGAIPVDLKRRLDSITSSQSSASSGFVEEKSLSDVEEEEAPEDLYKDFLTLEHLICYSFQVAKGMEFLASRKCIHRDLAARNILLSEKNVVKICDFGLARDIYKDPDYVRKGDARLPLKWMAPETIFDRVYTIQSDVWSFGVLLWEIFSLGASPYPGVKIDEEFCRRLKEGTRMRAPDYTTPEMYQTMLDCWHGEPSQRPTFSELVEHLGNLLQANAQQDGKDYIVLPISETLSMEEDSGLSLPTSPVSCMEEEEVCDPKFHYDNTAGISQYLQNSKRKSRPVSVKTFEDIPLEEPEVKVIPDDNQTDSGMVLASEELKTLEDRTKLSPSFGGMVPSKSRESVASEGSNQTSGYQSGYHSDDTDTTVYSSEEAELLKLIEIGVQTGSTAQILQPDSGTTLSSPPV
Description: as §1, §2

[17] = system: 35 different kinases; assay: Kinome screen: GINI coefficient; assay type: binding; conditions: panel of 35 different kinases; higher number = more selective
Description: as §1
as §2, with “The” for “The beads were then re-suspended in elution buffer (1×PBS, 0.05% Tween 20, 0.5 μM non-biotinylated affinity ligand) and incubated at room temperature with shaking for 30 minutes. The”
Both compounds 1 and C-1 were screened against 35 different kinases. The Gini coefficient was determined for both compounds. […]

[18] = system: BEAS-2B human lung epithelial cells; assay: CellTiter-Glo cell viability/cytotoxicity assay; assay type: cell-based; conditions: BEAS-2B cells, 48 h, concentration at 15% inhibition threshold
Description: A CellTiter-Glo luminescent cell viability/cytotoxicity assay was carried out in BEAS-2B human lung epithelial cells (ATCC) under the normal growth condition.
Cells were grown at 37° C. in a 5% CO2 humidified incubator in 50% DMEM/50% F-12 medium (Life Technologies) supplemented with 10% FBS (Hyclone), 100 U/mL penicillin, 100 μg/mL streptomycin (Life Technologies), and 2 mM GlutaMAX (Life Technologies). On day 1 of the assay, cells were seeded at a 500 cells/well density in white 384-well tissue culture plates (Corning) with 25 μL medium, and were allowed to adhere overnight in the incubator. On day 2 of the assay, 5 μL of medium containing dose-responses of test compounds was added, and incubated at 37° C. for 48 h. 30 μL of CellTiter-Glo detection solution (Promega) was subsequently added, mixed on an orbital shaker for 5 min, and incubated for additional 10 min before being read on the EnVision reader. Luminescence signals were recorded and percent DMSO control values were calculated.
For dose-response analysis, percent DMSO control data were plotted vs. compound concentrations to derive dose-response curves by line connecting each data point. The concentration at which each curve crosses the 15% inhibition threshold is defined as CC15.

[19] = Dynamic moisture sorption assessment; assay type: physicochemical; conditions: for weight gain, 5% to 70% relative humidity / weight gain, 5% to 90% relative humidity: room temperature
Description: Dynamic moisture sorption (DMS) measurement was performed using a VTI atmospheric microbalance, SGA-100 system (VTI Corp., Hialeah, Fla. 33016). A weighed sample was used and the humidity was lowest possible value (close to 0% RH) at the start of the analysis. The DMS analysis consisted of an initial drying step (0% RH) for 120 minutes, followed by two cycles of sorption and desorption with a scan rate of 5% RH/step over the humidity range of 5% RH to 90% RH. The DMS run was performed isothermally at 25° C.

[20] = Solid state stability assessment of Form 1; assay type: physicochemical
Description: Samples of the Form 1 crystalline free form of the invention were stored at 25° C. and 60% relative humidity (RH) and at 40° C. and 75% RH under two configurations a) open glass vial and b) closed glass vial placed inside an HDPE bottle containing desiccant. HDPE bottle was induction sealed. At specific intervals, the contents of a representative sample were removed and analyzed by HPLC for chemical purity (shown below as HPLC Purity (% a/a)).

SMILES: CCc1cc(O)c(F)cc1-c1ccc2c(-c3nc4c([nH]3)CCN(C(=O)CN3CCOCC3)C4)n[nH]c2c1 [C-1, 1-(2-(6-(2-Ethyl-5-fluoro-4-hydroxyphenyl)-1H-indazol-3-yl)-1,4,6,7-tetrahydro-5H-imidazo[4,5-c]pyridin-5-yl)-2-morpholinoethan-1-one, reference compound]
- inhibition at 1 µM [1]: 81%
- inhibition at 1 µM [2]: 57%
- inhibition at 1 µM [3]: 53%
- inhibition at 1 µM [4]: 99%
- inhibition at 1 µM [5]: 95%
- inhibition at 1 µM [6]: 100%
- inhibition at 1 µM [7]: 98%
- inhibition at 1 µM [8]: 68%
- inhibition at 1 µM [9]: 99%
- inhibition at 1 µM [10]: 99%
- inhibition at 1 µM [11]: 70%
- inhibition at 1 µM [12]: 68%
- inhibition at 1 µM [13]: 100%
- inhibition at 1 µM [14]: 100%
- inhibition at 1 µM [15]: 78%
- inhibition at 1 µM [16]: 63%
- GINI coefficient [17]: 0.46
- CC15 [18]: 0.63 µM

SMILES: CCc1cc(O)c(F)cc1-c1cc(F)c2c(-c3nc4c([nH]3)CCN(C(=O)CN3CCOCC3)C4)n[nH]c2c1 [Form 1, 1-(2-(6-(2-Ethyl-5-fluoro-4-hydroxyphenyl)-4-fluoro-1H-indazol-3-yl)-1,4,6,7-tetrahydro-5H-imidazo[4,5-c]pyridin-5-yl)-2-morpholinoethan-1-one]
- hygroscopicity [19]: slightly-hygroscopic
- weight gain, 5% to 70% relative humidity [19]: about 0.99%
- weight gain, 5% to 90% relative humidity [19]: about 1.32%
- HPLC Purity ([20]; 2 weeks, 40° C./75% RH Open): 98.72 % a/a
- HPLC Purity ([20]; 4 weeks, 25° C./60% RH Closed With Desiccant): 98.75 % a/a
- HPLC Purity ([20]; 4 weeks, 25° C./60% RH Open): 98.75 % a/a
- HPLC Purity ([20]; 4 weeks, 40° C./75% RH Closed With Desiccant): 98.75 % a/a
- HPLC Purity ([20]; 4 weeks, 40° C./75% RH Open): 98.70 % a/a
- HPLC Purity ([20]; 8 weeks, 25° C./60% RH Closed With Desiccant): 98.87 % a/a
- HPLC Purity ([20]; 8 weeks, 25° C./60% RH Open): 98.75 % a/a
- HPLC Purity ([20]; 8 weeks, 40° C./75% RH Closed With Desiccant): 98.80 % a/a
- HPLC Purity ([20]; 8 weeks, 40° C./75% RH Open): 98.97 % a/a
- HPLC Purity ([20]; 24 weeks, 25° C./60% RH Closed With Desiccant): 99.02 % a/a
- HPLC Purity ([20]; 24 weeks, 25° C./60% RH Open): 98.78 % a/a
- HPLC Purity ([20]; 24 weeks, 40° C./75% RH Closed With Desiccant): 99.06 % a/a
- HPLC Purity ([20]; 24 weeks, 40° C./75% RH Open): 98.89 % a/a
- HPLC Purity ([20]; 36 weeks, 25° C./60% RH Closed With Desiccant): 98.80 % a/a
- HPLC Purity ([20]; 36 weeks, 25° C./60% RH Open): 98.75 % a/a
- HPLC Purity ([20]; 36 weeks, 40° C./75% RH Closed With Desiccant): 98.86 % a/a
- HPLC Purity ([20]; 36 weeks, 40° C./75% RH Open): 98.71 % a/a
- changes in chemical purity ([20]; after 36 weeks at accelerated conditions of 40° C. and 75% relative humidity): no statistically significant changes
- HPLC Purity ([20]; time point 0 weeks): 98.73 % a/a

SMILES: CCc1cc(O)c(F)cc1-c1cc(F)c2c(-c3nc4c([nH]3)CCN(C(=O)CN3CCOCC3)C4)n[nH]c2c1 [Form 2, 1-(2-(6-(2-Ethyl-5-fluoro-4-hydroxyphenyl)-4-fluoro-1H-indazol-3-yl)-1,4,6,7-tetrahydro-5H-imidazo[4,5-c]pyridin-5-yl)-2-morpholinoethan-1-one]
- hygroscopicity [19]: non-hygroscopic
- weight gain, 5% to 70% relative humidity [19]: about 0.12%
- weight gain, 5% to 90% relative humidity [19]: about 0.18%

Reference: patent US10493077B2, “Fused imidazo-piperidine JAK inhibitor compound” (THERAVANCE BIOPHARMA R&D IP, LLC, priority 2017, dated 2019)
